Measurements published in PubChem BioAssay AID2082 (Sanford-Burnham Center for Chemical Genomics, 2009).

Target: Tyrosine-protein phosphatase non-receptor type 7 (Homo sapiens) (UniProt P35236)
Test: HePTP phosphatase inhibition by analogues, SAR follow-up, selectivity assay for VHR1 inhibitor project, biochemical, DiFMUP fluorescence (AID 2082)
Details: recombinant HePTP

Chain of Tyrosine-protein phosphatase non-receptor type 7 (Homo sapiens) (P35236 whole entry, looked up): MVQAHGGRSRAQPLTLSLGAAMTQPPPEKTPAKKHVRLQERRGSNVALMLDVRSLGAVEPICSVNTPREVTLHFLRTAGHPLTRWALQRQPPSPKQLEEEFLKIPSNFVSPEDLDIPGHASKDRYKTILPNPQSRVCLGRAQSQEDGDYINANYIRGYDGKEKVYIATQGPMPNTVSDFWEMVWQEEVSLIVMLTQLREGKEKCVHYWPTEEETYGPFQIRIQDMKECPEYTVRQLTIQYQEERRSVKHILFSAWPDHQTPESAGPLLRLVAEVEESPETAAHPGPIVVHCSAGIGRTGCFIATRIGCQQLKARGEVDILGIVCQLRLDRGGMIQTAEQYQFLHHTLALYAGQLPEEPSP

Structure (SMILES)	IC50 [µM]
O=C1/C(=C/c2cn(-c3ccccc3)nc2-c2ccc(OCc3ccccc3F)cc2)SC(=S)N1CCS(=O)(=O)O	0.87
O=C1/C(=C/c2cn(-c3ccccc3)nc2-c2ccc(OCc3ccccc3Cl)cc2)SC(=S)N1CCS(=O)(=O)O	1.2
O=C1/C(=C/c2cn(-c3ccccc3)nc2-c2ccc(S(=O)(=O)N3CCCCC3)cc2)SC(=S)N1CCS(=O)(=O)O	2.4
O=C1/C(=C/c2cn(-c3ccccc3)nc2-c2ccc(OCc3ccccc3)cc2)SC(=S)N1CCS(=O)(=O)O	1.5
O=C1/C(=C/c2cn(-c3ccccc3)nc2-c2ccc(OCc3ccc(Cl)cc3)cc2)SC(=S)N1CCS(=O)(=O)O	0.62
